Experimental data from ChEMBL document CHEMBL3639062, “Triazolopyridazines as PAR1 inhibitors, production thereof, and use as medicaments” (2015).

Target: T1, Proteinase-activated receptor 1 (Homo sapiens, UniProt P25116)
T1 sequence (P25116 whole entry): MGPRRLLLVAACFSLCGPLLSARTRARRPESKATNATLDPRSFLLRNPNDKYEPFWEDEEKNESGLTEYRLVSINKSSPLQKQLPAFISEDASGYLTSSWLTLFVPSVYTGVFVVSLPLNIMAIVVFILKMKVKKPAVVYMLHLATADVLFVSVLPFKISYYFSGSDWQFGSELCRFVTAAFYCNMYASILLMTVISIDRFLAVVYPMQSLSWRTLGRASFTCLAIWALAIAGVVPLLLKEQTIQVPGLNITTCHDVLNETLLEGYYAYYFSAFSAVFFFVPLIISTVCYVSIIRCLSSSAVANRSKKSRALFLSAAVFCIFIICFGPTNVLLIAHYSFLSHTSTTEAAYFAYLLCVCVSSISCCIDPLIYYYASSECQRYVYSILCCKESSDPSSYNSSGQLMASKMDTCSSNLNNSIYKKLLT
Experiment: Binding Assay: The synthesized substances were examined in a PAR1 binding test. This tested whether the substances can inhibit the binding of a radioactively labeled PAR1 agonist known from the literature at the PAR1 receptor (Ho-Sam Ahn, Mol Pharm, 51:350-356, 1997). The human PAR1 receptor was expressed transiently in High Five insect cells. From these cells, after 48 hours, a membrane preparation was produced by standard methods, aliquoted into 10 mM Tris-HCl; 0.3 mM EDTA; 1 mM EGTA; 250 mM sucrose pH 7.5, and stored at -80 C.The substances were preincubated with the membrane at room temperature for 15 minutes, then the radioligand (ALA-(para-F-Phe)-Arg-ChA-homoArg-(3,4-3H-Tyr)-NH2; approx. 40 Ci/mMol) was added. The end concentration of the radioligand in the test buffer (50 mM Tris-HCl; 10 mM MgCl2; 1 mM EGTA; 0.1% BSA; 2% DMSO) was 20 nM, that of the membrane 1 mg/ml. After an incubation time of 60 minutes, 25 uL of the mixture were transferred to a 96-well MultiScreenHTS FB.

SMILES: CCC(CC)Oc1nn2c(=N)n(CC(=O)c3cc(OC)cc(C(C)(C)C)c3)nc2cc1C
- IC50: 951 nM
